The supplement of paper PMC10307832

Columns and labels:
Assay in all cases: relative viability (nuclei count vs DMSO), 5 days (fraction); higher = more cells survive
[1] = compound: C=CCc1cccc(/C=N/NC(=O)CN2CCN(Cc3ccccc3)CC2)c1O [PAC-1] + Cc1nc(NC(=O)N2CCC[C@H]2C(N)=O)sc1-c1ccnc(C(C)(C)C(F)(F)F)c1 [Alpelisib] (partner 2 µM)
Method in brief: (§1)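 Lung cancer cell lines were pin-tool dosed in 1536-well plates on the day after seeding, with either a lone drug or a fixed anchor-drug dose plus five library-drug doses (not always all listed) in √10 steps. Nuclei were counted on 4× images after 5 days. Relative viability is the ratio of treated-well to vehicle-well nuclei counts, with each value a median of duplicate plates.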

[2] = compound: C=CC(=O)N1CCC[C@@H](n2nc(-c3ccc(Oc4ccccc4)cc3)c3c(N)ncnc32)C1 [Ibrutinib] + O=C(CCCCCCC(=O)Nc1ccccc1)NO [Vorinostat] (partner 1 µM)
Method in brief: as §1

[3] = compound: C=CC(=O)Nc1cc(-n2c(=O)ccc3cnc4ccc(-c5ccc(NS(C)(=O)=O)cc5)cc4c32)ccc1C [BMX-IN-1] + COc1cccc2cc(-c3nc([C@H]4CC[C@H](C(=O)O)CC4)n4ncnc(N)c34)[nH]c12 [OSI-027] (partner 0.5 µM)
Method in brief: as §1

[4] = compound: C=CC(=O)N1CCC[C@@H](n2nc(-c3ccc(Oc4ccccc4)cc3)c3c(N)ncnc32)C1 [Ibrutinib] + COc1cccc2cc(-c3nc([C@H]4CC[C@H](C(=O)O)CC4)n4ncnc(N)c34)[nH]c12 [OSI-027] (partner 0.5 µM)
Method in brief: as §1

| Cell Line | relative viability ([1]; first compound 0.02 µM) | relative viability ([1]; first compound 0.06325 µM) | relative viability ([1]; first compound 0.2 µM) | relative viability ([1]; first compound 2 µM) | relative viability ([2]; first compound 0.005 µM) | relative viability ([2]; first compound 0.01581 µM) | relative viability ([2]; first compound 0.05 µM) | relative viability ([2]; first compound 0.5 µM) | relative viability ([3]; first compound 0.02 µM) | relative viability ([3]; first compound 0.2 µM) | relative viability ([3]; first compound 0.6325 µM) | relative viability ([3]; first compound 2 µM) | relative viability ([4]; first compound 0.005 µM) | relative viability ([4]; first compound 0.01581 µM) | relative viability ([4]; first compound 0.05 µM) | relative viability ([4]; first compound 0.1581 µM) | relative viability ([4]; first compound 0.5 µM) | relative viability ([2]; first compound 0.1581 µM) |
| --- | --- | --- | --- | --- | --- | --- | --- | --- | --- | --- | --- | --- | --- | --- | --- | --- | --- | --- |
| A-427 | 1.17 | 1.08 | 1.05 | 1.05 | 0.883 | 0.875 | 0.887 | 0.867 | 0.448 | 0.417 | 0.501 | 0.461 | 0.36 | 0.431 | 0.512 | 0.369 | 0.499 |  |
| SK-LU-1 | 0.901 | 1 | 0.919 | 0.854 | 0.883 | 0.715 | 0.765 | 0.766 | 0.345 | 0.316 | 0.42 | 0.298 | 0.262 | 0.324 | 0.301 | 0.397 | 0.381 | 0.813 |
| NCI-H2170 | 0.746 | 0.859 | 0.752 | 0.7 | 0.703 | 0.656 | 0.396 | 0.181 | 0.735 | 0.803 | 0.79 | 0.769 | 0.48 | 0.587 | 0.459 | 0.822 | 0.272 | 0.831 |
| RERF-LC-KJ | 0.768 | 0.8 | 1.33 | 0.783 | 0.631 | 0.703 | 0.593 | 0.659 | 0.626 | 0.612 | 0.587 | 0.278 | 0.516 | 0.441 | 0.497 | 0.579 | 0.489 | 0.668 |
| LXF-289 | 1.1 | 1.02 | 1.06 | 1.01 | 0.943 | 0.798 | 0.695 | 0.749 | 0.878 | 0.766 | 1.1 | 0.838 | 0.762 | 0.722 | 0.771 | 0.702 | 0.695 | 0.796 |
| LC-2-ad | 0.942 | 0.845 | 0.791 | 0.887 | 0.74 | 0.665 | 0.706 | 0.775 | 0.872 | 0.918 | 0.768 | 0.841 | 0.741 | 0.746 | 0.797 | 0.792 | 0.752 | 0.802 |
| NCI-H23 | 0.529 | 0.692 | 0.741 | 0.764 | 0.467 | 0.527 | 0.514 | 0.594 | 0.549 | 0.728 | 0.581 | 0.713 | 0.331 | 0.562 | 0.681 | 0.57 | 0.607 | 0.605 |
